Results reported in paper PMC9814779, “A triple farnesoid X receptor and peroxisome proliferator-activated receptor α/δ activator reverses hepatic fibrosis in diet-induced NASH in mice” (Communications Chemistry, 2020).

Tests used:
[1] = test system: diet-induced mouse model of NASH; conditions: cited from earlier work
[2] = Microsomal stability assay; assay type: in vitro ADME, rat
[3] = test system: human full-length PPAR response element (PPRE) reporter; experiment: Full-length PPAR response element (PPRE) reporter gene assay in HEK293T cells; assay type: cell-based; conditions: HEK-293T, mean ± SEM, n = 3
Source text: (§1) For the hybrid reporter gene assays, the previously reported Gal4-fusion receptor plasmids pFA-CMV-hPPARα-LBD[29], pFA-CMV-hPPARδ-LBD[29], pFA-CMV-hPPARγ-LBD[29], pFA-CMV-hLXRα-LBD[30], pFA-CMV-hLXRβ-LBD[30], pFA-CMV-hRXRα-LBD[31], pFA-CMV-hRXRβ-LBD[31], pFA-CMV-hRXRγ-LBD[31], pFA-CMV-hRARα-LBD[31], pFA-CMV-hRARβ-LBD[31], pFA-CMV-hRARγ-LBD[31], pFA-CMV-hVDR-LBD[31], and pFA-CMV-hCAR-LBD[31] coding for the hinge region and LBD of the canonical isoform of the respective nuclear receptor were used. pFR-Luc (Stratagene) was used as reporter plasmid for Gal4 hybrid reporter gene assays. pcDNA3-hFXR[32] and pSG5-hRXR[33] served for receptor overexpression in the full-length FXR assay and pGL3basic (Promega Corporation, Fitchburg, WI, USA) with a shortened construct of the BSEP promoter cloned into the SacI/NheI cleavage site in front of the luciferase gene[34] was used as reporter. PPRE-pGL3[35] contains the human full-length PPRE (cloned into the SacI/NheI cleavage site in front of the luciferase gene) and was used as reporter plasmid for the full-length PPRE reporter gene assay. pRL-SV40 (Promega) was used in all assays for normalization of transfection efficiency and cell growth.
(§2) Before transfection, medium was changed to Opti-MEM without supplements. […] Luminescence was measured with a Spark 10 M luminometer (Tecan Deutschland GmbH). […]

[4] = test system: nuclear receptors related to PPARs and FXR (LXRα/β, RXRα/β/γ, RARα/β/γ, VDR, CAR); experiment: Selectivity screening among nuclear receptors (Gal4 hybrid reporter gene assays); assay type: cell-based, human; conditions: three independent experiments
Source text: as §1, §2

[5] = molecular target: T1, human FXR:retinoid X receptor (RXR) heterodimer (Homo sapiens, UniProt Q96RI1); experiment: Full-length FXR reporter gene assay (BSEP response element) in HeLa cells; assay type: cell-based; set-up: Emax: dose or concentration left out as unconfirmed
T1 construct: pcDNA3-hFXR[32] and pSG5-hRXR[33] served for receptor overexpression in the full-length FXR assay; expressed in transfected cells; host or cells: HeLa

[6] = 10 μM, rat liver microsomes, 37 °C, 41 n = 3, 7-EC n = 1

T1 sequence (P19793 whole entry): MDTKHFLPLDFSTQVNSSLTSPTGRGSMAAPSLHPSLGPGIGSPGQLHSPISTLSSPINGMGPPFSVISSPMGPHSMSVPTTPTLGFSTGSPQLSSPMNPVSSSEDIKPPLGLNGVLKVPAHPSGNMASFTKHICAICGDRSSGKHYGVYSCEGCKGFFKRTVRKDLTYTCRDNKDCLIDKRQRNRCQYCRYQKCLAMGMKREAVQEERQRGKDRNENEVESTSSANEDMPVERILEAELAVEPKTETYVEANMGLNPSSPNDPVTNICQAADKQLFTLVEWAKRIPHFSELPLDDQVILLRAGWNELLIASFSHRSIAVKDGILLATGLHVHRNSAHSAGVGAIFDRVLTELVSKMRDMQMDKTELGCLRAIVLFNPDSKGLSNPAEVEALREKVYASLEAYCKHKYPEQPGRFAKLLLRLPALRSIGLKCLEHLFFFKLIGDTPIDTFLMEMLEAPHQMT
T1 sequence (Q96RI1 whole entry): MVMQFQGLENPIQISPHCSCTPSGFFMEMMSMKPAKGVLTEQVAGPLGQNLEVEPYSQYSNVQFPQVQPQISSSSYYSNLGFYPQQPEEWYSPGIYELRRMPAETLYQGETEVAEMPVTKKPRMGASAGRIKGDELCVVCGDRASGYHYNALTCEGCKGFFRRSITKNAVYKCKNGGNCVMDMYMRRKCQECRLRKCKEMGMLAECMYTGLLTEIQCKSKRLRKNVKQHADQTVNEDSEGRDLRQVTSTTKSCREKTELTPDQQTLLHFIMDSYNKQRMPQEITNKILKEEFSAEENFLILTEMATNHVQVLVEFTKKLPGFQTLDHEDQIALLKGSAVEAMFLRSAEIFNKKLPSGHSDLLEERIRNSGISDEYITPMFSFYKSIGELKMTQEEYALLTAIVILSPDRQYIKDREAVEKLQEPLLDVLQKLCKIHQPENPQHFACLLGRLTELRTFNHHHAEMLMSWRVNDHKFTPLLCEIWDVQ

In the case of `CC[C@H]1[C@@H](O)[C@@H]2[C@H](CC[C@]3(C)[C@@H]([C@H](C)CCC(=O)O)CC[C@@H]23)[C@@]2(C)CC[C@@H](O)C[C@@H]12` [OCA, 6α-ethylchenodeoxycholic acid, reference compound], the anti-steatotic effect ([1]; OCA 30 mg/kg, OCA/elafibranor 30 mg/kg + 10 mg/kg, elafibranor 10 mg/kg) is listed as “marked reductions in steatosis” and the anti-fibrotic activity ([1]; equivalent, previously reported study) is listed as “only weak anti-fibrotic activity compared to vehicle”.

In the case of `CC(C)(C)c1ccc(C(=O)Nc2cccc(CCC(=O)O)c2)c(NC(=O)c2ccc(-c3ccco3)cc2)c1` [compound 41, 3-(3-[4-{tert-Butyl}-2-{4-(2-furyl)}benzamido]phenyl)propanoic acid], the “percent of remaining compound, 15 min” value [2, 6] is reported as 95 ± 3%, the “percent of remaining compound, 30 min” value [2, 6] is reported as 95 ± 2% and the “percent of remaining compound, 60 min” value [2, 6] is reported as 93 ± 2%. For the same molecule, the “stability against microsomal degradation” value ([2]; in words) was “very high stability against microsomal degradation”, the EC50 [3] was 0.17 µM and the “selectivity among nuclear receptors related to PPARs and FXR” value [4] was “no off-target liability”. The Emax ([5]; HeLa, read-out: max. rel. act. FXR) was 19%, the EC50 ([5]; HeLa, mean ± SEM, n = 3, read-out: EC50 [μM] FXR) was 0.015 ± 0.002 µM and the “FXR activation efficacy compared to OCA” value ([5]; reporter gene assay and mRNA expression levels) was “approximately 1/5”.
